Data reported in ChEMBL document CHEMBL5352390, “Design, synthesis and biological evaluation of (Quinazoline 4-yloxy)acetamide and (4-oxoquinazoline-3(4H)-yl)acetamide derivatives as inhibitors of Mycobacterium tuberculosis bd oxidase” (2022).
Values after ≈ are worked out from the molar mass of the structure shown. Active and inactive are the calls of the source. The rule behind the calls is not given here.

What was measured:
[1] = tested on: Mycobacterium tuberculosis; assay: Antimycobacterial activity against wild type Mycobacterium tuberculosis H37Rv assessed as inhibition of bacterial growth incubated for 7 days by resazurin microplate assay; format: functional; conditions: 168 h, time 7 day
[2] = tested on: Mycobacterium tuberculosis; assay: (§1) Inhibition of wild type Mycobacterium tuberculosis H37Rv cytochrome bd oxidase assessed as reduction in total cellular ATP level by measuring relative luminescence unit at 0.1 uM incubated for 15 hrs by BacTiter-Glo microbial cell viability reagent based bioluminescence assay relative to control (Rvb= 13.73%)
[3] = tested on: Mycobacterium tuberculosis; assay: Inhibition of wild type Mycobacterium tuberculosis H37Rv cytochrome bd oxidase assessed as inhibition of oxygen consumption at 0.1 uM and measured after 5 days by Methylene blue dye based assay; conditions: time 5.0 day
[4] = tested on: Mycobacterium tuberculosis; assay: Bactericidal activity against wild type Mycobacterium tuberculosis H37Rv under hypoxia condition assessed as reduction in log10 CFU at 0.03 uM incubated for 3 days by Methylene blue dye based CFU assay; format: functional; conditions: time 3 day
[5] = tested on: Mycobacterium tuberculosis; assay: Bactericidal activity against wild type Mycobacterium tuberculosis H37Rv under hypoxia condition assessed as reduction in log10 CFU at 0.5 uM incubated for 3 days by Methylene blue dye based CFU assay; format: functional; conditions: time 3 day
[6] = tested on: Mycobacterium tuberculosis; assay: Inhibition of wild type Mycobacterium tuberculosis H37Rv cytochrome bd oxidase assessed as inhibition of oxygen consumption at 16 to 64 uM and measured after 5 days by Methylene blue dye based assay; conditions: dose 16-64 µM, time 5.0 day
[7] = tested on: Mycobacterium tuberculosis; assay: as §1, with “32” for “0.1”, “hrs in presence of Q203” for “hrs”
[8] = tested on: Mycobacterium tuberculosis; assay: as §1, with “32” for “0.1”
[9] = tested on: Mycobacterium tuberculosis; assay: Synergistic bactericidal activity against wild type Mycobacterium tuberculosis H37Rv under hypoxia condition assessed as reduction in log10 CFU at 32 uM incubated for 3 days in presence of Q203 by Methylene blue dye based CFU assay; format: functional; conditions: time 3 day
[10] = tested on: Mycobacterium tuberculosis; assay: Synergistic antimycobacterial activity against wild type Mycobacterium tuberculosis H37Rv assessed as fractional inhibitory concentration index incubated for 7 days in presence of Q203 by checkboard format based resazurin microplate assay; format: functional; conditions: time 7 day
[11] = tested on: Mycobacterium tuberculosis; assay: Bactericidal activity against wild type Mycobacterium tuberculosis H37Rv under hypoxia condition assessed as reduction in log10 CFU at 32 uM incubated for 3 days by Methylene blue dye based CFU assay; format: functional; conditions: time 3 day
[12] = tested on: Mycobacterium tuberculosis; assay: Inhibition of wild type Mycobacterium tuberculosis H37Rv cytochrome bd oxidase assessed as inhibition of oxygen consumption at 16 to 64 uM and measured for 20 days in presence of Q203 by Methylene blue dye based assay; conditions: dose 16-64 µM, time 20.0 day
[13] = tested on: Mycobacterium tuberculosis; assay: Bactericidal activity against wild type Mycobacterium tuberculosis H37Rv under hypoxia condition assessed as reduction in log10 CFU at 0.5 ug/ml incubated for 3 days by Methylene blue dye based CFU assay; format: functional, organism-based; conditions: dose 0.5 µg/ml, time 3.0 day

Row | Compound | MIC [1] | also measured
1 | COc1ccc(NC(=O)Cn2cnc3ccccc3c2=O)cc1 | > 32 µM | 
2 | COc1ccccc1NC(=O)Cn1cnc2ccccc2c1=O | > 32 µM | 
3 | O=C(COc1ncnc2ccccc12)Nc1ccc(OC(F)(F)F)cc1 | > 32 µM | 
4 | COc1ccc(N2CCN(c3ccc(CNC(=O)COc4ncnc5ccccc45)cc3)CC2)cc1 | > 32 µM | 
5 | O=C(Cn1cnc2ccccc2c1=O)Nc1ccc([N+](=O)[O-])cc1 | > 32 µM | 
6 | Cc1ccc(NC(=O)COc2ncnc3ccccc23)cc1 | > 32 µM | 
7 | O=C(COc1ncnc2ccccc12)NCc1ccc(N2CCC(c3ccccc3)CC2)cc1 | > 32 µM | 
8 | O=C(Cn1cnc2ccccc2c1=O)Nc1ccc(OC(F)(F)F)cc1 | > 32 µM | 
9 | COc1ccc(NC(=O)COc2ncnc3ccccc23)cc1 | > 32 µM | 
10 | O=C(Cn1cnc2ccccc2c1=O)Nc1ccc(Br)cc1 | > 32 µM | 
11 | CCc1nc2ccc(Cl)cn2c1C(=O)NCc1ccc(N2CCC(c3ccc(OC(F)(F)F)cc3)CC2)cc1 [TELACEBEC] | 0.016 µM (≈ 0.00891 µg/mL) | inhibition [2]: 33.4%; inhibition [3]: inactive; Activity [4]: 0.8 log10CFU
12 | COc1nc2ccc(Br)cc2cc1[C@@H](c1ccccc1)[C@@](O)(CCN(C)C)c1cccc2ccccc12 [BEDAQUILINE] |  | Activity [5]: 2.3 log10CFU
13 | Cc1ccccc1NC(=O)COc1ncnc2ccccc12 | > 32 µM | 
14 | O=C(COc1ncnc2ccccc12)NCc1ccc(N2CCN(c3ccccc3)CC2)cc1 | > 32 µM | 
15 | O=C(COc1ncnc2ccccc12)NCc1ccc(N2CCN(c3ccc(F)cc3)CC2)cc1 | > 32 µM | 
16 | O=C(COc1ncnc2ccccc12)Nc1ccc(Cl)cc1 | 256 µM (≈ 80.3 µg/mL) | inhibition [6]: inactive; inhibition [7]: 91.2%; inhibition [8]: 22.8%; Activity [9]: 4 log10CFU; fractional inhibitory concentration index (FICI) [10]: 0.375; Activity [11]: 1.9 log10CFU; inhibition [12]: Active

Row | Compound | MIC [1] | also measured
17 | O=C(Cn1cnc2ccccc2c1=O)Nc1ccc(Cl)cc1 | > 32 µM | 
18 | O=C(Cn1cnc2ccccc2c1=O)Nc1ccccc1 | > 32 µM | 
19 | O=C(Cn1cnc2ccccc2c1=O)NC1=C(C(F)(F)F)CCC=C1 | > 32 µM | 
20 | O=C(Cn1cnc2ccccc2c1=O)Nc1ccc(C(F)(F)F)cc1 | > 32 µM | 
21 | O=C(COc1ncnc2ccccc12)Nc1cccc2ccccc12 | > 32 µM | 
22 | O=C(COc1ncnc2ccccc12)Nc1ccccc1 | 128 µM (≈ 35.8 µg/mL) | inhibition [6]: inactive; inhibition [7]: 89.8%; inhibition [8]: 7%; Activity [9]: 4 log10CFU; fractional inhibitory concentration index (FICI) [10]: 1.062; Activity [11]: 1.9 log10CFU; inhibition [12]: Active
23 | NNC(=O)c1ccncc1 |  | Activity [13]: inactive
24 | O=C(COc1ncnc2ccccc12)Nc1ccc(F)cc1 | > 32 µM | 
25 | O=C(COc1ncnc2ccccc12)Nc1ccc(Br)cc1 | > 32 µM | 
26 | O=C(COc1ncnc2ccccc12)Nc1ccc(C(F)(F)F)cc1 | > 32 µM | 
27 | O=C(COc1ncnc2ccccc12)NCc1ccc(N2CCN(Cc3ccccc3)CC2)cc1 | > 32 µM | 
28 | Cc1ccc(NC(=O)Cn2cnc3ccccc3c2=O)cc1 | > 32 µM | 
29 | O=C(Cn1cnc2ccccc2c1=O)Nc1ccc(F)cc1 | > 32 µM | 
30 | CSc1ccc(NC(=O)Cn2cnc3ccccc3c2=O)cc1 | > 32 µM | 
31 | O=C(COc1ncnc2ccccc12)NCc1ccccc1 | > 32 µM | 
32 | COc1ccccc1NC(=O)COc1ncnc2ccccc12 | > 32 µM | 
